Source: patent publication US7056679B2, “Target specific screening and its use for identifying target binders” (Antyra, Inc., priority 2001, dated 2006)

Legend:
[1] = tested on: E-tag antibody; experiment: ELISA analysis of phage on antibody raised against ETAG (positive control); settings: peptide binding to E-tag antibody; phage ELISA units read at 405 nm
Description: (§1) For analysis of individual target binders, colonies were picked and phage prepared as described above using helper phage, M13KO7. Ninety-six-well microtiter plates were coated with 500 ng/well of specific target protein, 500 ng/well lactate dehydrogenase (LDH) irrelevant or non-specific target, 500 ng/well of positive control antibody raised against ETAG, and negative control of non-fat milk powder-PBS 2% at 4° C. overnight. Plates were then blocked with 350 microliters/well PBS containing 2% non-fat milk for 1 hr at room temperature. One hundred microliters per well of phage from isolated clones were added and plates were incubated at room temperature for 2 hr after centrifuging samples for 20 minutes at 3500 rpm at 4° C. The phage solution was then removed, and the wells were washed three times with PBS at room temperature. Antibody raised against M13 conjugated to horseradish peroxidase (Pharmacia) was diluted 1:3000 in PBS-Tween and added to each well (100 μl/well). Incubation was for 1 hr at room temperature, followed by washing with PBS-(0.5%) Tween 3 times as described. Color was developed by addition of ABTS solution (100 μl/well; Boehringer, Indianapolis, Ind.). Plates were analyzed at 405 nm. A clone was considered “positive” if the A405 of the well was ≧2-fold over background.

[2] = target: T1, DGI-2 (Homo sapiens, UniProt Q15004); experiment: ELISA analysis of phage on DGI-2 polypeptide (specific binding); settings: for DGI-2 (OD): binding to DGI-2 polypeptide (specific binding), phage ELISA units read at 405 nm; for DGI-2/LDH (OD): ratio of specific binding to non-specific binding
T1 construct: encompassed the entire DGI-2 open reading frame (ORF); His-tag of vector pIVEX2.3-MCS (inferred from the vector and from the reverse primer lacking a stop codon); made in house; host or cells: cell-free in vitro translation (Rapid Translation System RTS, Roche; E. coli lysate)
T1 sequence (Q15004 1-111): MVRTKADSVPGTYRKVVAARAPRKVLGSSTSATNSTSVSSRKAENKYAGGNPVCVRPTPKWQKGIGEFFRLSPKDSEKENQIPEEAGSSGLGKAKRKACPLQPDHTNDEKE
Description: To verify that the selected target binders bound to DGI-2, Elisa assays were performed with recombinant DGI-2. DGI-2 was subcloned and expressed using conventional methods as described below.
Protein yields were satisfactory, but most of protein was found in inclusion bodies. Next, DGI-2 was expressed using an in vitro translation system (Rapid Translation System RTS 5000, Roche Diagnostics GmbH, Mannheim Germany). For this system, the DGI-2 ORF was cloned into the pIVEX2.3-MCS vector (Roche Diagnostics) using restriction sites Nde I and Hind III, which were added to DGI-2 by PCR. […] The primers used for the PCR amplification were as follows: […]
as §1

[3] = tested on: lactate dehydrogenase (LDH); experiment: ELISA analysis of phage on LDH (irrelevant, non-specific target); type: binding; settings: for LDH (OD): peptide binding to LDH polypeptide (non-specific binding), phage ELISA units read at 405 nm; for LDH: DGI-9 binders, LDH control irrelevant protein, ratio over background
Description: as §1

DGI-2 (OD) [2] | DGI-2/LDH (OD) [2] | LDH (OD) [3] | LDH [3] | Substance | ETAG (OD) [1]
2.2 OD | 2.1 | 1.1 OD | – | ACSVGTALVFPQRWWYLGRS (DGI-2-20R-3-D6; listed as Escherichia coli) [DGL-2-20R-3-D6] | 12.9 OD
2.6 OD | 2.6 | 1.0 OD | – | ALRSLGSGGFGWQAGRASPQGMTHFPYFGWSGMPTARVRP (DGI-2-40F-3-D7; listed as Escherichia coli) | 10.3 OD
0.9 OD | 1.1 | 0.8 OD | – | CAYRWGLFRGPGRVDYDLQVVGIMMWPGPIPDRSSRGSVA (DGI-2-40F-3-A7; listed as Escherichia coli) | 8.7 OD
2.1 OD | 2.2 | 1.0 OD | – | CCAWNGVGVGGLGWRVVVGP (DGI-2-20F-PP-H4; listed as Escherichia coli) | 32.9 OD
8.7 OD | 8.1 | 1.1 OD | – | CGGWGAMWEAWVQGLNGAGC (DGI-2-20R-3-D4; listed as Escherichia coli) | 18.9 OD
2.8 OD | 3.0 | 1.0 OD | – | CRNFGVIWGAGWVSPGCEDJ (CRNFGVIWGAGWVSPGCEDI; not fully specified; non-natural residue J; DGI-2-20F-3-A1; listed as Escherichia coli) [DGI-2-20E-3-A1] | 14.3 OD
2.5 OD | 2.3 | 1.1 OD | – | CYLSRLFRSGQGIGQFGHVE (DGI-2-20F-PP-A82; listed as Escherichia coli) | 16.5 OD
3.9 OD | 3.7 | 1.1 OD | – | DAGIGWVGSMWFPPGCIGAC (DGI-2-20R-4-E82; listed as Escherichia coli) | 19.6 OD
2.3 OD | 1.3 | 1.8 OD | – | DDIVCLFQFCTMFCWLDMGW (DDIVCLFQFCIMFCWLDMGW; DGI-2-20F-PP-H3; listed as Escherichia coli) | 3.7 OD
5.7 OD | 5.5 | 1.0 OD | – | DGKHLTKWSGRGWWSAWVGG (DGI-2-20R-3-B12; listed as Escherichia coli) | 15.5 OD
12.9 OD | 11.0 | 1.2 OD | – | DGRGWGAMWMRWAEGLGADI (DGI-2-20R-4-G114; listed as Escherichia coli) | 16.5 OD
7.5 OD | 7.2 | 1.0 OD | – | DQRVVGSGWFERLRNWYDRA (DGI-2-20R-4-G99; listed as Escherichia coli) | 14.1 OD
2.6 OD | 2.3 | 1.1 OD | – | DRHRAFVAEGLDGFRHSTGV (DGI-2-20F-PP-D4; listed as Escherichia coli) | 44.0 OD
2.7 OD | 3.1 | 0.9 OD | – | DRSRAPLCADKSGRWQRYRR (DGI-2-20F-PP-C10; listed as Escherichia coli) | 8.6 OD
7.9 OD | 6.2 | 1.3 OD | – | DRVARLATPTAGTMAAGSLGYERTVGCDSQDWFRCVVEGL (DGI-2-40F-3-D1044; listed as Escherichia coli) | 17.7 OD
2.1 OD | 2.1 | 1.0 OD | – | DSEA*RVWYSGFLRRLGHMC (DSEARVWYSGFLRRLGHMC; DGI-2-20F-PP-F7; listed as Escherichia coli) | 3.3 OD
1.6 OD | 1.5 | 1.1 OD | – | DVGAVVRSGHCASRPGE*QVR (DVGAVVRSGHCASRPGEQVR; DGI-2-20F-PP-H9; listed as Escherichia coli) | 13.6 OD
0.8 OD | 0.9 | 0.9 OD | – | DYKGRTMTSPIMSALPVYDRLHGIGSRGQNMD (DYKGRTMTSPIMSALPVYDRLHGAIGSRGQNMD; DGI-2-20C-3-B3; listed as Escherichia coli) | 7.7 OD
1.0 OD | 1.2 | 0.8 OD | – | DYKTCVSQHVHPLFGEYFYHKVTHMSILSPTFRVTSLYG.K (DYKTCVSQHVHPLFGEYFYHKVTHMSILSPTFRVTSLYGK; DGI-2-40F-3-B95; listed as Escherichia coli) | 5.4 OD

DGI-2 (OD) [2] | DGI-2/LDH (OD) [2] | LDH (OD) [3] | LDH [3] | Substance | ETAG (OD) [1]
7.1 OD | 6.3 | 1.1 OD | – | EGNWFCAVFRGFCVGDRGPE (DGI-2-20R-3-A1; listed as Escherichia coli) | 11.1 OD
2.6 OD | 2.2 | 1.1 OD | – | EGQRVVFLFGALVAGLCWRDR (DGI-2-20F-PP-F3; listed as Escherichia coli) | 18.7 OD
3.0 OD | 3.4 | 0.9 OD | – | ERVSKCVGRGSGRSVGQFGG (DGI-2-20F-PP-F1; listed as Escherichia coli) | 11.1 OD
3.0 OD | 2.6 | 1.2 OD | – | EVFVSVWVFRFRVMPVTPGGT (DGI-2-20F-PP-E6; listed as Escherichia coli) | 4.1 OD
1.7 OD | 2.4 | 0.7 OD | – | FGRDGDGIQRRQGGFSWVGDR (DGI-2-20F-PP-E2; listed as Escherichia coli) | 11.6 OD
1.8 OD | 1.9 | 1.0 OD | – | FGSTAYADMLSQFRKFAMNIS (DGI-2-20F-PP-E1; listed as Escherichia coli) | 33.4 OD
– | – | – | 1.1 | FLLQDFIMDAGSFVKPIGVG [DGI9-20M-4-A414] | –
7.9 OD | 7.5 | 1.1 OD | – | FRMWVQSCFWGQPGTGCGEG (DGI-2-20R-3-D2; listed as Escherichia coli) | 14.3 OD
1.8 OD | 2.1 | 0.8 OD | – | FRVALLSVSAGPCEGSGNT (DGI-2-20F-PP-H7; listed as Escherichia coli) | 3.7 OD
1.5 OD | 1.4 | 1.1 OD | – | FSSTGILLRSGRATAVGHVT (DGI-2-20F-3-A6; listed as Escherichia coli) | 13.2 OD
1.1 OD | 1.1 | 0.9 OD | – | FSSVLGLLDRRGVPVVVGED (DGI-2-20F-3-C3; listed as Escherichia coli) | 11.6 OD
1.6 OD | 1.8 | 0.9 OD | – | GAIRLSGAAWTASRTGGRAS (DGI-2-20F-PP-E7; listed as Escherichia coli) | 21.5 OD
2.4 OD | 2.0 | 1.2 OD | – | GASRVVDVGWRFWGKLWQRS (DGI-2-20F-PP-G5; listed as Escherichia coli) | 27.7 OD
0.9 OD | 1.0 | 0.9 OD | – | GEVDCVYALTHRFLSPQVQYHIHRPV (GEVDCVYALTHRFLSPQVQYHHRPV; DGI-2-20C-3-A12; listed as Escherichia coli) | 8.1 OD
2.6 OD | 2.8 | 0.9 OD | – | GGDLGEQGVQLCPDVVRGGSL (DGI-2-20F-PP-A7; listed as Escherichia coli) | 42.2 OD
– | – | – | 1.0 | MAGFRGSGLSGYSEARLPRV [DGI9-20M-4-E3] | –
– | – | – | 0.9 | SRLALSSQHGLSLVAGRRRG [DGI9-20M-4-A12] | –
– | – | – | 0.9 | WDWSRFGAQLRGAILGRATG [DGI9-20M-4-A627] | –
